Where two headings read alike, the source gives them in different places. Blank lines part the entries; values can stand above or below the molecule they belong to.
Tests used:
BSA [1] = target: T1, BSA (Bos taurus, UniProt P02769); type: in vitro ADME, bovine; settings: for Effect on the plasma protein binding of metoprolol: BSA, metoprolol 0.5, 1 and 2 μg mL^−1, statistical results (p > 0.05); for fraction unbound at 60 min, 0.5 μg mL^−1 / fraction unbound at 60 min, 1 μg mL^−1 / fraction unbound at 60 min, 2 μg mL^−1: bovine, BSA solution
BSA [2] = target: T1, BSA; test: Plasma protein binding of metoprolol in BSA by ultrafiltration and UPLC; type: in vitro ADME, bovine; settings: for C f: total free concentration in filtrate
plasma protein = settings: in humans; cited from earlier work
Nonspecific binding = type: in vitro ADME; settings: concentration recovered after ultrafiltration

T1 sequence (P02769 25-607): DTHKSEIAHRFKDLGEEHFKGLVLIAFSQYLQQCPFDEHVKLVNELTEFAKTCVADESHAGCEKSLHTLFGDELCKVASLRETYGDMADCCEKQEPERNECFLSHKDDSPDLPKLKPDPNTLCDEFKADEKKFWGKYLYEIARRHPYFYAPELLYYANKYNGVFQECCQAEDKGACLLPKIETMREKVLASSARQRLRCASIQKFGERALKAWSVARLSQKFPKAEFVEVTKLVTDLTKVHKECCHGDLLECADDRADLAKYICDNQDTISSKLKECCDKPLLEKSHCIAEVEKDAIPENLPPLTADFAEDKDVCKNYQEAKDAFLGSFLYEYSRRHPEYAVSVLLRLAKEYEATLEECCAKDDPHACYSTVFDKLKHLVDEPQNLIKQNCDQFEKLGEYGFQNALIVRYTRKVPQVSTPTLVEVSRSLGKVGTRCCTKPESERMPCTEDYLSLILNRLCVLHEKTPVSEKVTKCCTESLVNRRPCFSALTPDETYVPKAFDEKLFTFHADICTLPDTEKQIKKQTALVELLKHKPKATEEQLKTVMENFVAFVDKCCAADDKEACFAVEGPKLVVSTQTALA

fraction unbound at 60 min, 0.5 μg mL^−1 (BSA [2]; bovine, BSA solution): 0.718 | fraction unbound at 60 min, 1 μg mL^−1 (BSA [2]; bovine, BSA solution): 0.703 | fraction unbound at 60 min, 2 μg mL^−1 (BSA [2]; bovine, BSA solution): 0.716 | C f (BSA [2]; metoprolol 0.5 μg mL^−1 alone): 0.36 ± 0.01 µg/mL | C f (BSA [2]; metoprolol 1 μg mL^−1 alone): 0.70 ± 0.02 µg/mL | C f (BSA [2]; metoprolol 2 μg mL^−1 alone): 1.45 ± 0.03 µg/mL | fraction unbound at 60 min, 0.5 μg mL^−1 (BSA [1]; Plasma protein binding (with cinnamic acid), metoprolol 0.5 μg mL^−1 plus cinnamic acid 1 μg mL^−1, BSA): 0.741 | fraction unbound at 60 min, 1 μg mL^−1 (BSA [1]; Plasma protein binding (with cinnamic acid), metoprolol 1 μg mL^−1 plus cinnamic acid 1 μg mL^−1, BSA): 0.693 | fraction unbound at 60 min, 2 μg mL^−1 (BSA [1]; Plasma protein binding (with cinnamic acid), metoprolol 2 μg mL^−1 plus cinnamic acid 1 μg mL^−1, BSA): 0.716 | fraction unbound at 60 min, 0.5 μg mL^−1 (BSA [1]; Plasma protein binding (with glycyrrhizic acid), metoprolol 0.5 μg mL^−1 plus glycyrrhizic acid 2 μg mL^−1, BSA): 0.721 | fraction unbound at 60 min, 1 μg mL^−1 (BSA [1]; Plasma protein binding (with glycyrrhizic acid), metoprolol 1 μg mL^−1 plus glycyrrhizic acid 2 μg mL^−1, BSA): 0.717 | fraction unbound at 60 min, 2 μg mL^−1 (BSA [1]; Plasma protein binding (with glycyrrhizic acid), metoprolol 2 μg mL^−1 plus glycyrrhizic acid 2 μg mL^−1, BSA): 0.704 | fraction unbound at 60 min, 0.5 μg mL^−1 (BSA [1]; Plasma protein binding (with liquiritin), metoprolol 0.5 μg mL^−1 plus liquiritin 2 μg mL^−1, BSA): 0.74 | fraction unbound at 60 min, 1 μg mL^−1 (BSA [1]; Plasma protein binding (with liquiritin), metoprolol 1 μg mL^−1 plus liquiritin 2 μg mL^−1, BSA): 0.708 | fraction unbound at 60 min, 2 μg mL^−1 (BSA [1]; Plasma protein binding (with liquiritin), metoprolol 2 μg mL^−1 plus liquiritin 2 μg mL^−1, BSA): 0.701 | C free (BSA [1]; metoprolol 0.5 μg mL^−1 plus atractylenolide III (0.1 μg mL^−1)): 0.37 ± 0.02 µg/mL | C f (BSA [1]; metoprolol 0.5 μg mL^−1 plus cinnamic acid 1 μg mL^−1): 0.37 ± 0.01 µg/mL | C free (BSA [1]; metoprolol 0.5 μg mL^−1 plus glycyrrhizic acid 2 μg mL^−1): 0.35 ± 0.02 µg/mL | C free (BSA [1]; metoprolol 0.5 μg mL^−1 plus liquiritin 2 μg mL^−1): 0.37 ± 0.01 µg/mL | C free (BSA [1]; metoprolol 1 μg mL^−1 plus atractylenolide III (0.1 μg mL^−1)): 0.70 ± 0.02 µg/mL | C f (BSA [1]; metoprolol 1 μg mL^−1 plus cinnamic acid 1 μg mL^−1): 0.69 ± 0.02 µg/mL | C free (BSA [1]; metoprolol 1 μg mL^−1 plus glycyrrhizic acid 2 μg mL^−1): 0.72 ± 0.02 µg/mL | C free (BSA [1]; metoprolol 1 μg mL^−1 plus liquiritin 2 μg mL^−1): 0.71 ± 0.03 µg/mL | C free (BSA [1]; metoprolol 2 μg mL^−1 plus atractylenolide III (0.1 μg mL^−1)): 1.40 ± 0.08 µg/mL | C f (BSA [1]; metoprolol 2 μg mL^−1 plus cinnamic acid 1 μg mL^−1): 1.44 ± 0.03 µg/mL | C free (BSA [1]; metoprolol 2 μg mL^−1 plus glycyrrhizic acid 2 μg mL^−1): 1.40 ± 0.03 µg/mL | C free (BSA [1]; metoprolol 2 μg mL^−1 plus liquiritin 2 μg mL^−1): 1.39 ± 0.03 µg/mL | C post (Nonspecific binding; added 0.5 μg mL^−1): 0.40 ± 0.02 µg/mL | C post (Nonspecific binding; added 1.0 μg mL^−1): 0.78 ± 0.03 µg/mL | C post (Nonspecific binding; added 2.0 μg mL^−1): 1.55 ± 0.05 µg/mL
Structure (SMILES): COCCc1ccc(OCC(O)CNC(C)C)cc1 (centres unmarked) [Metoprolol]
mean plasma protein binding (PPB) (plasma protein): 30.70 ± 2.76%

Effect on the plasma protein binding of metoprolol (BSA [1]): unlikely to affect
Structure (SMILES): O=C1C[C@@H](c2ccc(O[C@@H]3O[C@H](CO)[C@@H](O)[C@H](O)[C@H]3O)cc2)Oc2cc(O)ccc21 [Liquiritin, liquiritin]

More lines, now with the values behind:

Structure (SMILES): O=C(O)/C=C/c1ccccc1 [Cinnamic acid, cinnamic acid]
Effect on the plasma protein binding of metoprolol (BSA [1]): unlikely to affect

Structure (SMILES): CC1(C)[C@@H](O[C@H]2O[C@H](C(=O)O)[C@@H](O)[C@H](O)[C@H]2O[C@@H]2O[C@H](C(=O)O)[C@@H](O)[C@H](O)[C@H]2O)CC[C@]2(C)[C@H]3C(=O)C=C4[C@@H]5C[C@@](C)(C(=O)O)CC[C@]5(C)CC[C@@]4(C)[C@]3(C)CC[C@@H]12 [Glycyrrhizic acid, glycyrrhizic acid]
Effect on the plasma protein binding of metoprolol (BSA [1]): unlikely to affect

Structure (SMILES): C=C1CCC[C@]2(C)C[C@]3(O)OC(=O)C(C)=C3C[C@@H]12 [Atractylenolide III, atractylenolide III]
Effect on the plasma protein binding of metoprolol (BSA [1]): unlikely to affect

From publication PMC9088703 (RSC Advances, 2018)
